Laboratory results from patent US8686224B2, “Plant defense signal peptides” (priority 2005, dated 2014).
“Also recorded” adds a separate entry of the source.

Columns and labels:
[1] = biological target: T1, 180 kD AtPep1-binding protein (AtPep1 receptor, At1g73080) (Arabidopsis thaliana, UniProt Q9SSL9); test: Photoaffinity labeling with 125I-azido-Cys-AtPep1, competition; settings: microsomal membranes of wild type and control SALK plants, preincubated with 2.5 nM AtPep1
T1 construct: endogenous in cells
T1 sequence (Q9SSL9 29-1123): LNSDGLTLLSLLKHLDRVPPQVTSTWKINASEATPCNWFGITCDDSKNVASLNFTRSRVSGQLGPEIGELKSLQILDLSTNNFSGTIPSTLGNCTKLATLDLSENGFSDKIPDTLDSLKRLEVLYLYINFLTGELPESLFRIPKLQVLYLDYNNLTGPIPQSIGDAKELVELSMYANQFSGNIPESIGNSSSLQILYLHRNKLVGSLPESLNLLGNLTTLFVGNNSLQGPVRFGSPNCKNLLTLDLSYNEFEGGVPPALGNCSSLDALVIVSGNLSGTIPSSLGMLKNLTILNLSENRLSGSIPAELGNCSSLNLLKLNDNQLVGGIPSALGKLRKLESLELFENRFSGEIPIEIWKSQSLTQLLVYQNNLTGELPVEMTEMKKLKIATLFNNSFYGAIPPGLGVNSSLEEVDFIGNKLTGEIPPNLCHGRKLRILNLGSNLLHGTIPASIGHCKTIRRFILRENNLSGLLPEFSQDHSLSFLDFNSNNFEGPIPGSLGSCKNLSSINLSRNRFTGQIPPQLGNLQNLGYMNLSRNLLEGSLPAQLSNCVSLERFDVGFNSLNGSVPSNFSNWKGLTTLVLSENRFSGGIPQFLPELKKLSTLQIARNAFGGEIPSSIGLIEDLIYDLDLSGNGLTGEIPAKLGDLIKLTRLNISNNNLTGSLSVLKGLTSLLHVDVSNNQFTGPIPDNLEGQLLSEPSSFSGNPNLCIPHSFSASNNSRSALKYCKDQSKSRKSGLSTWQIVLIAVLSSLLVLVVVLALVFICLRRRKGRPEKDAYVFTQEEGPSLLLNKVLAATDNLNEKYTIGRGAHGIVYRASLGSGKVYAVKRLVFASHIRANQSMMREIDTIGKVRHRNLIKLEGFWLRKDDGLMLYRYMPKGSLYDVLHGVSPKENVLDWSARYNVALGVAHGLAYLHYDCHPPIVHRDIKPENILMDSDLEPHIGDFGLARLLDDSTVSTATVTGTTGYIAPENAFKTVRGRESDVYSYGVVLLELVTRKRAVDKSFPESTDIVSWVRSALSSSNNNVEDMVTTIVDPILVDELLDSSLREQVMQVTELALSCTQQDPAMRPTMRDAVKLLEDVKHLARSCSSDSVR
Description: Photoaffinity labeling. To 1 mL of cultured cells in darkness was added ^125I-azido-Cys-AtPep1 (0.25 nM final concentration as described above) and the cells were shaken for 10 min on an orbital shaker (160 rpm) at room temperature. The cells were transferred to a 1.5 mL glass tube, centrifuged at 10,000×g and the sedimented cells were dispersed in 1 mL cold MS medium containing 3% sucrose and centrifuged as above. This wash was repeated twice. The cells were resuspended in 1 mL MS medium and irradiated with UV-B for 10 min on ice to photoactivate the azido group to effect the crosslinking. The cells were washed with 1 mL MS medium, centrifuged as above, and resuspended in 400 μL of 5% SDS. The cells were disrupted by boiling for 30 min, and the insoluble debris was removed by centrifugation at 10,000×g. Proteins in the clear supernatant were precipitated by adding 1.25 volumes of methanol/chloroform (vol/vol). […]
Microsomal fractions were prepared from one-month-old plants by differential centrifugation as previously described (Scheer and Ryan, Proc. Natl. Acad. Sci. 99:9585-9590, 2002). […] The membranes were incubated for 60 min at approximately 4° C., irradiated with UV-B for 15 min, separated by SDS-PAGE, dried and analyzed by radioautography to identify labeled proteins.

[2] = system: wild type tobacco suspension-cultured cells; test: Medium alkalinization of wild type and GUS expressing tobacco cells; type: cell-based; settings: wild type tobacco (b358 also GUS expressing) cells
AtPEPR1 = biological target: T2, AtPEPR1 (Arabidopsis thaliana, UniProt Q9SSL9); test: Photoaffinity labeling of transgenic tobacco cells expressing AtPEPR1; type: binding; settings: 50 nM unlabeled competitor, 0.25 nM label
T2 construct: Tobacco cells were transformed with a CaMV-35S-AtPEPR1 gene; expressed in transfected cells; host or cells: tobacco suspension-cultured cells (Agrobacterium-mediated, CaMV 35S promoter)
T2 sequence (Q9SSL9 29-1123): T1 sequence (Q9SSL9 29-1123)
Description: For final confirmation, a photoaffinity-labeling experiment was performed using the transgenic tobacco cells. The transgenic cells were incubated with 0.25 nM ^125I1-azido-Cys-AtPep1 (Yamaguchi et al., Proc. Natl. Acad. Sci. USA 103: 10104-10109, 2006) and irradiated with UV-B to cross-link the AtPep1-binding proteins. After separation of extracted proteins by SDS-PAGE, the labeled proteins were detected on X-ray film. […] Since no specific labeling was detected in wild type tobacco and GUS expressing cells, the proteins labeled specifically by ^125I1-azido-Cys-AtPep1 in AtPEPR1 and AtPEPR2 expressing cells were products from the AtPEPR1 and AtPEPR2 genes.

H-ATKVKAKQRGKEKVSSGRPGQHN-OH [AtPep1] was tested. Which “photoaffinity labeled proteins after preincubation” value [1] did it give?
The value was “absent”.

And the “alkalinization of the medium” value [2]?
The value was “no alkalinization was detected; also recorded: did not respond”.

What about the “labeling of the 170 kDa protein by 125I1-azido-Cys-AtPep1 with competitor” value (AtPEPR1) of the same substance?
The value was “not in the cells incubated with 50 nM unlabeled AtPep1”.
